Measured values as given in patent publication US20190315731A1, “6-(BUTA-1,3-DIYN-1-YL)BENZO[D]THIAZOLE DERIVATIVES” (Idorsia Pharmaceuticals Ltd., priority 2016, published 2019).
In brackets after ≈: the same amount, converted by molar mass.

Assays:
Assay type in all cases: cell-based
[1] = test system: K. pneumoniae A-651; experiment: Bacterial growth minimal inhibitory concentration, K. pneumoniae A-651; settings: cation-adjusted Mueller-Hinton Broth, microdilution; for MIC: Klebsiella pneumoniae, A651, multiply-resistant (in particular quinolone-resistant) strain; for MIC for K. Pneumoniae A-651: multiply-resistant (in particular quinolone-resistant) strain
Procedure: (§1) Minimal Inhibitory Concentrations (MICs; mg/L) were determined in cation-adjusted Mueller-Hinton Broth by a microdilution method following the description given in “Methods for Dilution Antimicrobial Susceptibility Tests for Bacteria that Grow Aerobically”, Approved standard, 7th ed., Clinical and Laboratory Standards Institute (CLSI) Document M7-A7, Wayne, Pa., USA (2006).
(§2) All Example compounds were tested against several Gram-positive and Gram-negative bacteria. […] K. pneumoniae A-651 is a multiply-resistant (in particular quinolone-resistant) strain, while E. coli ATCC25922 and P. aeruginosa ATCC27853 are quinolone-sensitive strains.

[2] = test system: P. aeruginosa ATCC27853; experiment: Bacterial growth minimal inhibitory concentration, P. aeruginosa ATCC27853; settings: quinolone-sensitive strain, cation-adjusted Mueller-Hinton Broth, microdilution; for MIC: Pseudomonas aeruginosa, ATCC27853
Procedure: as §1, §2

[3] = test system: E. coli ATCC25922; experiment: Bacterial growth minimal inhibitory concentration, E. coli ATCC25922; settings: quinolone-sensitive strain, cation-adjusted Mueller-Hinton Broth, microdilution; for MIC: Escherichia coli, ATCC25922
Procedure: as §1, §2

[4] = test system: wild-type E. coli A-1261; experiment: Bacterial growth minimal inhibitory concentration of prodrugs, wild-type E. coli A-1261, with or without alkaline phosphatase or esterase; settings: for MIC for E. coli A-1261 In the absence of alkaline phosphatase or esterase: no alkaline phosphatase or esterase
Procedure: as §1
The compounds of Examples 6 and 21 were tested against wild-type E. coli A-1261 in the absence of alkaline phosphatase or esterase, in the presence of an alkaline phosphatase and in the presence of an esterase. The corresponding antibacterial test results are given in Table 2 hereafter (MICs in mg/L).

Row | Molecule | MIC [1] | MIC [2] | MIC [3] | further results
1 | C[C@@](CCc1nc2ccc(C#CC#CCOC(=O)N3CCC(O)CC3)cc2s1)(C(=O)NO)S(C)(=O)=O [Example 2, (2R)-5-(2-(4-(hydroxyamino)-3-methyl-3-(methylsulfonyl)-4-oxobutyl)benzo[d]thiazol-6-yl)penta-2,4-diyn-1-yl 4-hydroxypiperidine-1-carboxylate] | – | – | – | MIC for K. Pneumoniae A-651 [1]: 0.5 µg/mL; MIC for P. aeruginosa ATCC27853 [2]: 1 µg/mL; MIC for E. coli ATCC25922 [3]: 0.25 µg/mL
2 | C[C@@](CCc1nc2ccc(C#CC#CCOC(=O)N3CC(O)C3)cc2s1)(C(=O)NO)S(C)(=O)=O [Example 3, (2R)-5-(2-(4-(hydroxyamino)-3-methyl-3-(methylsulfonyl)-4-oxobutyl)benzo[d]thiazol-6-yl)penta-2,4-diyn-1-yl 3-hydroxyazetidine-1-carboxylate] | – | – | – | MIC for K. Pneumoniae A-651 [1]: 1 µg/mL; MIC for P. aeruginosa ATCC27853 [2]: 4 µg/mL; MIC for E. coli ATCC25922 [3]: 0.5 µg/mL
3 | CN1CC(C#CC#Cc2ccc3nc(CC[C@](C)(C(=O)NO)S(C)(=O)=O)sc3c2)C1 [Example 4, (2R)—N-hydroxy-2-methyl-4-(6-((1-methylazetidin-3-yl)buta-1,3-diyn-1-yl)benzo[d]thiazol-2-yl)-2-(methylsulfonyl)butanamide] | 0.5 µg/mL (≈ 1.12 µM) | 1 µg/mL (≈ 2.24 µM) | 0.25 µg/mL (≈ 0.561 µM) | –
4 | C[C@@](CCc1nc2ccc(C#CC#CC3CN(CCO)C3)cc2s1)(C(=O)NO)S(C)(=O)=O [Example 5, (2R)—N-hydroxy-4-(6-((1-(2-hydroxyethyl)azetidin-3-yl)buta-1,3-diyn-1-yl)benzo[d]thiazol-2-yl)-2-methyl-2-(methylsulfonyl)butanamide] | 0.5 µg/mL (≈ 1.05 µM) | 1 µg/mL (≈ 2.1 µM) | 1 µg/mL (≈ 2.1 µM) | –
5 | C[C@@](CCc1nc2ccc(C#CC#CC3CN(CCOP(=O)(O)O)C3)cc2s1)(C(=O)NO)S(C)(=O)=O [Example 6, (R)-2-(3-((2-(4-(hydroxyamino)-3-methyl-3-(methylsulfonyl)-4-oxobutyl)benzo[d]thiazol-6-yl)buta-1,3-diyn-1-yl)azetidin-1-yl)ethyl dihydrogen phosphate] | – | – | – | MIC for E. coli A-1261 In the presence of an alkaline phosphatase (2 i.U./mL) [4]: 0.5 µg/mL; MIC for E. coli A-1261 In the presence of an esterase (10 i.U./mL) [4]: >16 µg/mL; MIC for E. coli A-1261 In the absence of alkaline phosphatase or esterase [4]: >16 µg/mL
6 | CN1CC[C@H]1C#CC#Cc1ccc2nc(CC[C@](C)(C(=O)NO)S(C)(=O)=O)sc2c1 [Example 8, (2R)—N-hydroxy-2-methyl-4-(6-(((2S)-1-methylazetidin-2-yl)buta-1,3-diyn-1-yl)benzo[d]thiazol-2-yl)-2-(methylsulfonyl)butanamide] | 1 µg/mL (≈ 2.24 µM) | 2 µg/mL (≈ 4.49 µM) | 0.25 µg/mL (≈ 0.561 µM) | –
7 | C[C@@](CCc1nc2ccc(C#CC#CC3CN(CCCO)C3)cc2s1)(C(=O)NO)S(C)(=O)=O [Example 10, (2R)—N-hydroxy-4-(6-((1-(3-hydroxypropyl)azetidin-3-yl)buta-1,3-diyn-1-yl)benzo[d]thiazol-2-yl)-2-methyl-2-(methylsulfonyl)butanamide] | 0.5 µg/mL (≈ 1.02 µM) | 1 µg/mL (≈ 2.04 µM) | 0.25 µg/mL (≈ 0.511 µM) | –
8 | C[C@@](CCc1nc2ccc(C#CC#CC3CN(CCF)C3)cc2s1)(C(=O)NO)S(C)(=O)=O [Example 13, (2R)-4-(6-((1-(2-fluoroethyl)azetidin-3-yl)buta-1,3-diyn-1-yl)benzo[d]thiazol-2-yl)-N-hydroxy-2-methyl-2-(methylsulfonyl)butanamide] | 0.25 µg/mL (≈ 0.523 µM) | 1 µg/mL (≈ 2.09 µM) | 0.125 µg/mL (≈ 0.262 µM) | –
9 | CN1CCC(F)(C#CC#Cc2ccc3nc(CC[C@](C)(C(=O)NO)S(C)(=O)=O)sc3c2)CC1 [Example 15, (2R)-4-(6-((4-fluoro-1-methylpiperidin-4-yl)buta-1,3-diyn-1-yl)benzo[d]thiazol-2-yl)-N-hydroxy-2-methyl-2-(methylsulfonyl)butanamide] | 0.5 µg/mL (≈ 1.02 µM) | 1 µg/mL (≈ 2.03 µM) | 0.25 µg/mL (≈ 0.509 µM) | –
10 | C[C@@H]1[C@@H](C#CC#Cc2ccc3nc(CC[C@](C)(C(=O)NO)S(C)(=O)=O)sc3c2)CN1C [Example 16, (2R)-4-(6-(((2R,3S)-1,2-dimethylazetidin-3-yl)buta-1,3-diyn-1-yl)benzo[d]thiazol-2-yl)-N-hydroxy-2-methyl-2-(methylsulfonyl)butanamide] | 0.5 µg/mL (≈ 1.09 µM) | 0.5 µg/mL (≈ 1.09 µM) | 0.125 µg/mL (≈ 0.272 µM) | –
11 | CN1C[C@@H](C#CC#Cc2ccc3nc(CC[C@](C)(C(=O)NO)S(C)(=O)=O)sc3c2)[C@@H]1CO [Example 17, (2R)—N-hydroxy-4-(6-(((2R,3R)-2-(hydroxymethyl)-1-methylazetidin-3-yl)buta-1,3-diyn-1-yl)benzo[d]thiazol-2-yl)-2-methyl-2-(methylsulfonyl)butanamide] | 1 µg/mL (≈ 2.1 µM) | 1 µg/mL (≈ 2.1 µM) | 0.5 µg/mL (≈ 1.05 µM) | –
12 | CNC1(C#CC#Cc2ccc3nc(CC[C@](C)(C(=O)NO)S(C)(=O)=O)sc3c2)CC1 [Example 18, (2R)—N-hydroxy-2-methyl-4-(6-((1-(methylamino)cyclopropyl)buta-1,3-diyn-1-yl)benzo[d]thiazol-2-yl)-2-(methylsulfonyl)butanamide] | 0.25 µg/mL (≈ 0.561 µM) | 1 µg/mL (≈ 2.24 µM) | 0.125 µg/mL (≈ 0.281 µM) | –
13 | CN1C[C@@H](C#CC#Cc2ccc3nc(CC[C@](C)(C(=O)NO)S(C)(=O)=O)sc3c2)[C@@H]1CO [Example 19, (2R)—N-hydroxy-4-(6-(((2R,3R)-2-(hydroxymethyl)-1-methylazetidin-3-yl)buta-1,3-diyn-1-yl)benzo[d]thiazol-2-yl)-2-methyl-2-(methylsulfonyl)butanamide] | – | – | – | MIC for K. Pneumoniae A-651 [1]: 2 µg/mL; MIC for P. aeruginosa ATCC27853 [2]: 1 µg/mL; MIC for E. coli ATCC25922 [3]: 0.5 µg/mL
14 | CN1C[C@@H](C#CC#Cc2ccc3nc(CC[C@](C)(C(=O)NO)S(C)(=O)=O)sc3c2)C[C@@H]1CO [Example 20, (2R)—N-hydroxy-4-(6-(((3R,5R)-5-(hydroxymethyl)-1-methylpyrrolidin-3-yl)buta-1,3-diyn-1-yl)benzo[d]thiazol-2-yl)-2-methyl-2-(methylsulfonyl)butanamide] | 1 µg/mL (≈ 2.04 µM) | 1 µg/mL (≈ 2.04 µM) | 0.5 µg/mL (≈ 1.02 µM) | –
15 | (2R)-2-(3-((4-(5-((1-(3-hydroxypropyl)azetidin-3-yl)buta-1,3-diyn-1-yl)benzo[d]thiazol-2-yl)-2-methyl-2-(methylsulfonyl)butanamido)oxy)-3-oxopropyl)phenyl dihydrogen phosphate [Example 21] | – | – | – | MIC for E. coli A-1261 In the presence of an alkaline phosphatase (2 i.U./mL) [4]: 0.5 µg/mL; MIC for E. coli A-1261 In the presence of an esterase (10 i.U./mL) [4]: 8 µg/mL; MIC for E. coli A-1261 In the absence of alkaline phosphatase or esterase [4]: 0.5 µg/mL

Now from value to molecule, other results behind:

Row | MIC [1] | MIC [2] | MIC [3] | Molecule | further results
16 | 0.25 µg/mL | 1 µg/mL | 0.063 µg/mL | CN1CCC(F)(C#CC#Cc2ccc3nc(CC[C@](C)(C(=O)NO)S(C)(=O)=O)sc3c2)C1 (mixture of isomers) [Example 14, (2R)-4-(6-(((3RS)-3-fluoro-1-methylpyrrolidin-3-yl)buta-1,3-diyn-1-yl)benzo[d]thiazol-2-yl)-N-hydroxy-2-methyl-2-(methylsulfonyl)butanamide] | –
17 | 0.25 µg/mL (≈ 0.513 µM) | 1 µg/mL (≈ 2.05 µM) | 0.25 µg/mL (≈ 0.513 µM) | C[C@@](CCc1nc2ccc(C#CC#CC3CN(C4COC4)C3)cc2s1)(C(=O)NO)S(C)(=O)=O [Example 1, (2R)—N-hydroxy-2-methyl-2-(methylsulfonyl)-4-(6-((1-(oxetan-3-yl)azetidin-3-yl)buta-1,3-diyn-1-yl)benzo[d]thiazol-2-yl)butanamide] | –
18 | 0.25 µg/mL (≈ 0.543 µM) | 1 µg/mL (≈ 2.17 µM) | 0.125 µg/mL (≈ 0.271 µM) | C[C@@](CCc1nc2ccc(C#CC#C[C@@H]3CC[C@H]3CO)cc2s1)(C(=O)NO)S(C)(=O)=O [Example 7, (2R)—N-hydroxy-4-(6-(((1R,2R)-2-(hydroxymethyl)cyclobutyl)buta-1,3-diyn-1-yl)benzo[d]thiazol-2-yl)-2-methyl-2-(methylsulfonyl)butanamide] | –
19 | 0.25 µg/mL (≈ 0.498 µM) | 1 µg/mL (≈ 1.99 µM) | 0.125 µg/mL (≈ 0.249 µM) | C[C@@](CCc1nc2ccc(C#CC#CC3CN(CC4COC4)C3)cc2s1)(C(=O)NO)S(C)(=O)=O [Example 9, (2R)—N-hydroxy-2-methyl-2-(methylsulfonyl)-4-(6-((1-(oxetan-3-ylmethyl)azetidin-3-yl)buta-1,3-diyn-1-yl)benzo[d]thiazol-2-yl)butanamide] | –
20 | 0.125 µg/mL (≈ 0.265 µM) | 2 µg/mL (≈ 4.24 µM) | 0.063 µg/mL (≈ 0.134 µM) | C[C@@](CCc1nc2ccc(C#CC#CC3CN(C4CC4)C3)cc2s1)(C(=O)NO)S(C)(=O)=O [Example 11, (2R)-4-(6-((1-cyclopropylazetidin-3-yl)buta-1,3-diyn-1-yl)benzo[d]thiazol-2-yl)-N-hydroxy-2-methyl-2-(methylsulfonyl)butanamide] | –
21 | 0.25 µg/mL (≈ 0.498 µM) | 1 µg/mL (≈ 1.99 µM) | 0.125 µg/mL (≈ 0.249 µM) | C[C@@](CCc1nc2ccc(C#CC#CC3CN(C4CC(O)C4)C3)cc2s1)(C(=O)NO)S(C)(=O)=O (stereo partly drawn) [Example 12, (2R)—N-hydroxy-4-(6-((1-(3-hydroxycyclobutyl)azetidin-3-yl)buta-1,3-diyn-1-yl)benzo[d]thiazol-2-yl)-2-methyl-2-(methylsulfonyl)butanamide] | –
